In US9113629B2, “4-amino-6-(4-substituted-phenyl)-picolinates and 6-amino-2-(4-substituted-phenyl)-pyrimidine-4-carboxylates and their use as herbicides” (DOW AGROSCIENCES LLC, priority 2013, dated 2015):

Key:
[1] = Post-emergent Test III, herbicidal activity in wheat and barley; format: in vivo, Lolium multiflorum, Lolium rigidum; details: Lolium multiflorum, post-emergence, 504 h, Table 9, post-emergent, 21 d, read-out: Visual Growth Reduction (%) 21 Days After Application LOLSS; for pest or weed control at 35 g/ha: 35 g ai/ha; for pest or weed control at 70 g/ha: 70 g ai/ha; for pest or weed control at 140 g/ha: 140 g ai/ha
In short: (§1)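 Plants at the second to third true-leaf stage, grown in a greenhouse at about 18/17 °C with a 14 h photoperiod, were sprayed post-emergence at 187 L/ha with the high rate and ½× to 1/16× serial dilutions in an acetone/DMSO/crop-oil/surfactant carrier. Injury was rated visually at 21 d on a 0–100% scale, and GR20–GR90 were derived by probit analysis.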

[2] = tested on: APESV: bentgrass (Apera spica-venti); assay: as above; format: in vivo; details: Table 9, 21 d; for pest or weed control at 35 g/ha / pest or weed control at 70 g/ha / pest or weed control at 140 g/ha: Apera spica-venti, post-emergence, 504 h, post-emergent, read-out: Visual Growth Reduction (%) 21 Days After Application APESV; for pest or weed control at 35 g/ha: 35 g ai/ha; for pest or weed control at 70 g/ha: 70 g ai/ha; for GR50 APESV: dose for 50 percent growth reduction; for GR50 APESV / GR80 APESV: probit analysis; for GR80 APESV: dose for 80 percent growth reduction; for pest or weed control at 140 g/ha: 140 g ai/ha
In short: as §1

[3] = tested on: HORSS: barley, including spring and winter (Hordeum vulgare); assay: as above; format: in vivo; details: Table 9, 21 d; for pest or weed control at 35 g/ha / pest or weed control at 70 g/ha / pest or weed control at 140 g/ha: Hordeum vulgare, post-emergence, 504 h, post-emergent, read-out: Visual Growth Reduction (%) 21 Days After Application HORSS; for pest or weed control at 35 g/ha: 35 g ai/ha; for pest or weed control at 70 g/ha: 70 g ai/ha; for GR20 HORSS: dose for 20 percent growth reduction, probit analysis; for pest or weed control at 140 g/ha: 140 g ai/ha
In short: as §1

[4] = tested on: KCHSC: kochia (Kochia scoparia); assay: as above; format: in vivo; details: Table 9, 21 d; for pest or weed control at 35 g/ha / pest or weed control at 70 g/ha / pest or weed control at 140 g/ha: Bassia scoparia, post-emergence, 504 h, post-emergent, read-out: Visual Growth Reduction (%) 21 Days After Application KCHSC; for pest or weed control at 35 g/ha: 35 g ai/ha; for pest or weed control at 70 g/ha: 70 g ai/ha; for GR50 KCHSC: dose for 50 percent growth reduction; for GR50 KCHSC / GR80 KCHSC: probit analysis; for GR80 KCHSC: dose for 80 percent growth reduction; for pest or weed control at 140 g/ha: 140 g ai/ha
In short: as §1

[5] = tested on: LOLSS: ryegrass including, Italian ryegrass (Lolium multiflorum), rigid ryegrass (Lolium rigidum), annual ryegrass (Lolium multiflorum subsp. Gaudini); assay: as above; format: in vivo; details: Table 9, probit analysis, 21 d; for GR50 LOLSS: dose for 50 percent growth reduction; for GR80 LOLSS: dose for 80 percent growth reduction
In short: as §1

[6] = tested on: SETVI: green foxtail (Setaria viridis); assay: as above; format: in vivo; details: Table 9, 21 d; for pest or weed control at 35 g/ha / pest or weed control at 70 g/ha / pest or weed control at 140 g/ha: Setaria viridis, post-emergence, 504 h, post-emergent, read-out: Visual Growth Reduction (%) 21 Days After Application SETVI; for pest or weed control at 35 g/ha: 35 g ai/ha; for pest or weed control at 70 g/ha: 70 g ai/ha; for GR50 SETVI: dose for 50 percent growth reduction; for GR50 SETVI / GR80 SETVI: probit analysis; for GR80 SETVI: dose for 80 percent growth reduction; for pest or weed control at 140 g/ha: 140 g ai/ha
In short: as §1

[7] = tested on: TRZSS: wheat, including spring and winter (Triticum aestivum); assay: as above; format: in vivo; details: Table 9, 21 d; for GR20 TRZSS: dose for 20 percent growth reduction, probit analysis; for pest or weed control at 35 g/ha / pest or weed control at 70 g/ha / pest or weed control at 140 g/ha: Triticum aestivum, post-emergence, 504 h, post-emergent, read-out: Visual Growth Reduction (%) 21 Days After Application TRZSS; for pest or weed control at 35 g/ha: 35 g ai/ha; for pest or weed control at 70 g/ha: 70 g ai/ha; for pest or weed control at 140 g/ha: 140 g ai/ha
In short: as §1

| SMILES | pest or weed control at 35 g/ha [1] [%] | pest or weed control at 70 g/ha [1] [%] | pest or weed control at 35 g/ha [2] [%] | pest or weed control at 70 g/ha [2] [%] | GR50 APESV [2] [g ai/ha] | GR80 APESV [2] [g ai/ha] | pest or weed control at 35 g/ha [3] [%] | pest or weed control at 70 g/ha [3] [%] | GR20 HORSS [3] [g ai/ha] | pest or weed control at 35 g/ha [4] [%] | pest or weed control at 70 g/ha [4] [%] | GR50 KCHSC [4] [g ai/ha] | GR80 KCHSC [4] [g ai/ha] | GR50 LOLSS [5] [g ai/ha] | GR80 LOLSS [5] [g ai/ha] | pest or weed control at 35 g/ha [6] [%] | pest or weed control at 70 g/ha [6] [%] | GR50 SETVI [6] [g ai/ha] | GR80 SETVI [6] [g ai/ha] | GR20 TRZSS [7] [g ai/ha] | further results |
| --- | --- | --- | --- | --- | --- | --- | --- | --- | --- | --- | --- | --- | --- | --- | --- | --- | --- | --- | --- | --- | --- |
| Nc1cc(-c2ccc(Br)cc2F)nc(C(=O)O)c1Cl [Compound 74] | 30 to 44 | 45 to 59 | 85 to 94 | 85 to 94 | 10 | 25 | 85 to 94 | 85 to 94 | 1 | 85 to 94 | 95 to 100 | 3 | 11 | >140 | >140 | 75 to 84 | 85 to 94 | 3 | 49 | 1 | pest or weed control at 35 g/ha [7]: 75 to 84%; pest or weed control at 70 g/ha [7]: 75 to 84%; melting point: 186 to 187.3 °C |
| Nc1c(Cl)c(C(=O)O)nc(-c2ccc(I)cc2)c1Cl [Compound 173] | 30 to 44 | 45 to 59 | 60 to 74 | 75 to 84 | 27 | 59 | 85 to 94 | 95 to 100 | 1 | 30 to 44 | 45 to 59 | 60 | 131 | 119 | >140 | 30 to 44 | 45 to 59 | 54 | 104 | 1 | pest or weed control at 35 g/ha [7]: 75 to 84%; pest or weed control at 70 g/ha [7]: 85 to 94%; melting point: 188.7 to 190.3 °C |
| COC(=O)c1nc(-c2ccc(I)cc2)c(Cl)c(N)c1Cl [Compound 96] | 45 to 59 | 60 to 74 | 30 to 44 | 30 to 44 | 125 | >140 | 85 to 94 | 95 to 100 | 1 | 0 to 29 | 60 to 74 | 79 | >140 | 48 | >140 | 0 to 29 | 60 to 74 | 72 | 128 | 1 | pest or weed control at 140 g/ha [1]: 60 to 74%; pest or weed control at 140 g/ha [2]: 45 to 59%; pest or weed control at 140 g/ha [3]: 95 to 100%; pest or weed control at 140 g/ha [4]: 60 to 74%; pest or weed control at 140 g/ha [6]: 75 to 84%; pest or weed control at 35 g/ha [7]: 85 to 94%; pest or weed control at 70 g/ha [7]: 85 to 94%; pest or weed control at 140 g/ha [7]: 95 to 100%; melting point: 187.2 to 189.9 °C |
| C=Cc1c(C(=O)O)nc(-c2ccc(Br)cc2)c(F)c1N [Compound 117] | 45 to 59 | 60 to 74 | 45 to 59 | 60 to 74 | 41 | >140 | 0 to 29 | 0 to 29 | 73 | 60 to 74 | 75 to 84 | 20 | 67 | 41 | >140 | 0 to 29 | 60 to 74 | 59 | 99 | 32 | pest or weed control at 35 g/ha [7]: 0 to 29%; pest or weed control at 70 g/ha [7]: 30 to 44%; melting point: 149 to 151 °C |
| COC(=O)c1nc(-c2cc(F)c(I)cc2F)c(F)c(N)c1Cl [Compound 55, methyl 4-amino-3-chloro-6-(2,5-difluoro-4-iodophenyl)-5-fluoropicolinate] | 60 to 74 | 75 to 84 | 75 to 84 | 95 to 100 | 4 | 18 | 85 to 94 | 95 to 100 | 1 | 85 to 94 | 85 to 94 | 4 | 21 | 21 | 50 | 75 to 84 | 85 to 94 | 29 | 46 | 1 | pest or weed control at 35 g/ha [7]: 85 to 94%; pest or weed control at 70 g/ha [7]: 95 to 100%; melting point: 142 to 144 °C |
| Cc1c(-c2ccc(C(F)(F)F)c(F)c2)nc(C(=O)O)c(Cl)c1N [Compound 161, 4-amino-3-chloro-6-(3-fluoro-4-(trifluoromethyl)phenyl)-5-methylpicolinic acid] | 0 to 29 | 0 to 29 | 60 to 74 | 75 to 84 | 30 | 57 | 85 to 94 | 85 to 94 | 1 | 0 to 29 | 0 to 29 | >140 | >140 | 38 | 82 | 30 to 44 | 60 to 74 | 53 | 128 | 1 | pest or weed control at 35 g/ha [7]: 75 to 84%; pest or weed control at 70 g/ha [7]: 75 to 84%; melting point: 170 to 171.5 °C |
| COC(=O)c1nc(-c2ccc(Br)cc2)c(Cl)c(N)c1Cl [Compound 47] | 0 to 29 | 45 to 59 | 95 to 100 | 95 to 100 | 10 | 14 | 95 to 100 | 95 to 100 | 1 | 85 to 94 | 75 to 84 | 20 | 45 | 80 | >140 | 0 to 29 | 75 to 84 | 51 | 104 | 1 | pest or weed control at 140 g/ha [1]: 60 to 74%; pest or weed control at 140 g/ha [2]: 95 to 100%; pest or weed control at 140 g/ha [3]: 95 to 100%; pest or weed control at 140 g/ha [4]: 95 to 100%; pest or weed control at 140 g/ha [6]: 85 to 94%; pest or weed control at 35 g/ha [7]: 85 to 94%; pest or weed control at 70 g/ha [7]: 95 to 100%; pest or weed control at 140 g/ha [7]: 95 to 100%; melting point: 159.6 to 161.1 °C |
